Data published in paper PMC7915858, “Complementary Effects of Carbamylated and Citrullinated LL37 in Autoimmunity and Inflammation in Systemic Lupus Erythematosus” (International Journal of Molecular Sciences, 2021).

Experiments:
SLE CD4 T-cells (CXCR5) = assay: CXCR5 (TFH marker) expression on stimulated CD4 T-cells, flow cytometry; format: cell-based, human; conditions: representative plot
Description: Antibodies to CD4, CD8, CD3 conjugated with various fluorochromes (FITC, phycoerythrin (PE), peridinin-chlorophyll-protein (PerCp), allophycocyanin (APC), PE-Cy7) were from BD Biosciences or eBiosciences (San Diego, CA). For further LL37-specific T-cell characterization and B-cell characterization we used: APC-Cy7-CXCR5 (FAB190), APC or PE-CD38, CD19, CD20, CD27, antibodies, purchased from BD Biosciences, eBiosciences, Novus Biologicals (Littleton, CO), R&D (Minneapolis, MN). Appropriate isotype-matched controls were purchased from the same companies. PerCp-7-AAD was from BD Pharmingen, DAPI from Invitrogen (Thermo Fisher, Carlsbad, CA, USA).
(§1) PBMCs were purified from EDTA-treated blood, on Ficoll-Hypaque (Pharmacia Fine Chemicals, Uppsala, Sweden) and were incubated (10^5 cells/well) in 96-well-flat-bottom-microplates (BD) in T-cell-medium (RPMI 1640, 10% heat-inactivated human serum, HS, Gibco), 2 mM L-glutamine, 10 U/mL penicillin and 100 μg/mL streptomycin), with/without peptides. We performed assays on fresh cells, within 1-to-3 h from collection or on PBMCs frozen in 90% FCS−10% DMSO, whose viability we assessed by Trypan blue exclusion, with an inverted microscope. Recovery of live cells was between 65 and 85% of the frozen number. At day 3 and 5, BrdU was added (1 μg/mL). BrdU-incorporation was detected by APC-labeled anti-BrdU antibody (BD Pharmingen), after surface staining for CD4, CD3, CD8 and analyzed by flow cytometry (Gallios, BeckmanCoulter, Brea, CA, USA). Internal control for T-cell viability and proliferation was PHA treatment (2 μg/mL). SI for proliferation was calculated by dividing percent of BrdU-staining in the presence of each peptide antigen (LL37, carb-LL37, cit-LL37, LL37 reverse, REV; cit-LL37 reverse, cit-REV; carb-LL37 reverse, carb-REV) by the percent obtained in the untreated cells. SI for proliferation was considered positive when the values of percent of BrdU positive cells was three times higher than the values obtained with the control peptides (SI > 3). Assays were repeated twice with each patient. In rare cases in which background proliferation (culture with REV, cit-REV, carb-REV), exceeded antigen-specific proliferation (that is response to LL37, carb-LL37, cit-LL37), the assay was repeated three times. Concomitant phenotype analysis of LL37-responder T-cells included staining for CD3, CD4, CD8, CXCR5 (CXCR5 was assessed on BrdU/CD3/CD4-positive cells).

SLE serum antibody = assay: ELISA for antibody reactivity of SLE sera to carb-/cit-/native LL37 and carb-REV, and its correlation with SLEDAI; format: binding, human
Experimental: Anti-native LL37/cit-LL37/carb-LL37 antibodies were measured as described. Briefly, 96-well flat-bottom plates (Non-Binding surface polystyrene, Corning, Glendale, AZ USA) were coated with 2 μg/mL of native LL37, cit-LL37 or carb-LL37 in carbonate buffer (0.1 M NaHCHO3, pH 9) for 2 h (or overnight) and washed four times with PBS plus 0.1% Tween-20. This washing buffer was used for washing at all steps. The blocking buffer containing 2% bovine serum albumin (BSA, Sigma) in PBS was used for at least 1 h (or overnight) to saturate unspecific binding sites. After washing, sera were diluted at various concentrations (usually at 1:100 or 1:200) in PBS + 2% BSA followed by 1 h incubation with a horseradish peroxidase–conjugated (HRP) goat anti-human IgG (Sigma-Aldrich), diluted 1:10,000 in PBS. The color was developed for 5 min with 3,3′,5,5′-tetramethylbenzidine (TMB) substrate (Sigma-Aldrich). The reaction was stopped by adding 50 μL of 2 N H2SO4 and absorbance determined at 450 nm with a reference wavelength of 540 nm. Responses were considered positive when the OD measured exceeded the mean OD values measured in healthy donors’ plasma plus two standard deviations (+2SD), calculated on the HD group values, as described.
(§2) Differences between mean values were assessed by Wilcoxon’s matched-pair signed rank test, to compare responses to antigens and control antigens in the same donor. We used Mann-Whitney test for comparison of T-cell and antibody responses between groups of patients and HD. Statistical significance was set at p < 0.05. Correlation analyses were performed by Spearman’s rank-correlation test. Data were analyzed by GraphPad Prism 7.0 or SPSS software.

SLE CD4 T-cells = assay: T-cell proliferation (BrdU incorporation, flow cytometry); format: cell-based, human
Experimental: as §1, §2

[1] = test system: native LL37-P1-specific T-cells (HLA-DRB5*0101 tetramer); assay: Peptide-MHC-tetramer staining of T-cells after PBMC stimulation; format: cell-based, human; conditions: 6 days stimulation, CD38hi CD4 T-cells
Experimental: Peptide-MHC-tetramers were from ImmunAware (Denmark). Staining was performed for 40 min with 1microL of tetramer suspension at 37 °C, followed by staining for CD4 (4 °C, 20 min), without washing. After incubation with anti-CD4 antibody, cells were washed, resuspended in PBS and kept at 4 °C. Before flow cytometry-acquisition, cells were labeled with PercP-conjugated 7-AAD to exclude dead cells. The peptide-MHC-tetramers used in this study are: the HLA-DR15-P1: tetramer of HLA-DRB1*1501 LLGDFFRKSKEKIGK (corresponding to the first aa at the NH2-term of the mature native LL37), (PE-conjugated) and the control peptide-MHC-tetramer called DR15-ctr: tetramer of HLA-DRB1*1501 […]1-169-185 (PE-conjugated). The other couple of peptide-MHC-tetramers used were HLA-DRB5*0101 loaded with the same LL37 epitope as above and the control tetramer HLA-DRB5*0101 loaded with the control epitope PVSKMRMATPLLMQA (CLIP-derived).

pDCs = assay: IFN-α production by purified pDCs stimulated with peptide-DNA complexes; format: cell-based, human; conditions: peptide without DNA, 24 h, ELISA
Experimental: Buffy-coats from HD were from Centro Trasfusionale, Policlinico Umberto I, Rome, IT. After separation of mononuclear cells by Ficoll centrifugation, pDCs were purified as described, by using the Diamond Plasmacytoid Dendritic Cell Isolation Kit (Miltenyi Biotec, Bergisch Gladbach, Germany) to obtain 99% purity. Purified pDCs were seeded into 96-well round-bottom plates at 3.5/5 × 10^4 cells per well in 200 μL RPMI 1640 (GIBCO), supplemented with 10% fetal calf serum (FCS), 1% Hepes and 1% sodium pyruvate. LL37, cit-LL37 and carb-LL37 were premixed with total human genomic DNA (extracted from PBMC of HD, see below) (15 μg/mL). After 15 min incubation at room temperature the mix was added to the pDC cultures. IFN-α in supernatants was measured by ELISA (MabTech, Stockholm, Sweden), after 24 h (according to the manufacturer’s instructions).
Human DNA was extracted from PBMCs, as reported and was fragmented by sonication. Five milligrams of DNA in a volume of 300 μL were fragmented using the Sonics Vibra Cell sonicator (Newtown, CT, USA), with the following settings: 2, 4 and 10 sonication cycles (30 s on, 30 s off, in ice) to obtain DNA fragment sizes between 100 and 1000 bp. The resulting size distribution was controlled by 2% agarose gel electrophoresis.

memory B-cells = conditions: cited from earlier work
Description: LL37 is able to activate innate immune cells and B-cells after forming complexes with nucleic acids in a special molecular conformation, suitable for TLR stimulation. PDCs, as well as B-cells, are both activated by LL37-DNA or LL37-RNA complexes.

Substance	CXCR5-positive cells among total CD3+CD4+ cells (SLE CD4 T-cells (CXCR5); Figure S5b left panels) [%]	CXCR5-positive cells among CD3+CD4+BrdU+ cells (SLE CD4 T-cells (CXCR5); Figure S5b middle panels) [%]	CXCR5-positive cells among CD3+CD4+BrdU- cells (SLE CD4 T-cells (CXCR5); Figure S5b right panels) [%]	SLE patients showing an antibody response to the antigen (SLE serum antibody; ELISA, 2 μg/mL coated antigen, sera 1:100 or 1:200, OD 450 nm, positive: OD > mean HD + 2SD, carb-LL37 28 of 45, carb-REV 8 of 47 SLE patients) [%]	SLE serum antibody reactivity (OD) compared to healthy donors (SLE serum antibody; ELISA, OD, Mann-Whitney's test)	BrdU-positive CD3+CD4+ T-cells (SLE CD4 T-cells; BrdU staining, representative zebra plot, Figure S5a) [%]	Control (Ctr-B5) tetramer positive T-cells ([1]; Ctr-B5 tetr, lower panels Figure S6) [%]	LL37-specific T-cells (LL37-B5 tetramer positive) ([1]; LL37-B5 tetr, upper panels Figure S6) [%]	IFN-α response of pDCs to peptide alone (pDCs)	Stimulation of memory B-cells to mature into plasma cells, LL37-DNA complexes (memory B-cells)	Antibody reactivity in SLE patients with renal damage versus without renal damage (SLE serum antibody; ELISA, N=6 with and N=44 without renal damage, Mann-Whitney, Figure S3 panel a P 0.047)	Correlation of antibody reactivity with SLEDAI (SLE serum antibody; Spearman)	SLE patients responding by T-cell proliferation (SLE CD4 T-cells; BrdU, positive if SI > 3, carb-LL37 8 of 25, native LL37 17 of 31, cit-LL37 16 of 31 SLE patients) [%]
SETRPVLNRLFDK*IRQVIRKEFEK*GIK*EK*SK*RFFDGLL* [carb-REV, control carbamylated reverse (REV) LL37, reference compound]	3.28	8.76	3.26	17	also significant, as compared to response of HD but significantly lower than the response to carb-LL37	5.35	–	–	–	–	–	–	–
LLGDFFRKSKEKIGKEFKRIVQRIKDFLRNLVPRTES [LL37, mature human cathelicidin antimicrobial peptide, COOH-terminal part (res. 134–170), purchased from Proteogenix]	–	–	–	–	–	–	0.2	4.27	no IFN-α response	able to stimulate memory B-cells to mature into plasma cells	non-significant anti-cit- and anti-native-LL37 antibody increase	both responses also correlated with SLEDAI	55
